Experiments:
Assay type in all cases: in vivo
[1] = system: barnyardgrass (Echinochloa crus-galli); experiment: Test G Pre-Emergence Protocol; settings: Echinochloa crus-galli, pre-emergence, 312 h, evaluated after 13 days; for pest or weed control at 15.625 g/ha: 15.625 g ai/ha, read-out: Barnyard grass damage rating (100=total damage to plant; 0=no damage to plant); for pest or weed control at 62.5 g/ha: 62.5 g ai/ha, 100=total damage to plant, 0=no damage to plant, read-out: plant damage rating, Barnyardgrass; for pest or weed control at 250 g/ha: 250 g ai/ha, read-out: Barnyardgrass damage rating (100=total damage to plant; 0=no damage to plant)
How it was run: (§1)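 Scores are visual damage ratings from 0 (no damage) to 100 (total plant kill), taken 13 days after treatment. Compound was sprayed one day post-sowing at 15.625, 62.5 or 250 g/ha in 50:50 acetone/water with 0.5% Tween 20.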

corn (Zea mays) [2] = experiment: Test G Pre-Emergence Protocol; settings: Zea mays, pre-emergence, 312 h, evaluated after 13 days; for plant injury at 15.625 g/ha: 15.625 g ai/ha; for plant injury at 15.625 g/ha / plant injury at 250 g/ha: read-out: Corn damage rating (100=total damage to plant; 0=no damage to plant); for plant injury at 62.5 g/ha: 62.5 g ai/ha, 100=total damage to plant, 0=no damage to plant, read-out: plant damage rating, Corn; for plant injury at 250 g/ha: 250 g ai/ha
How it was run: as §1

[3] = system: giant foxtail (Setaria faberi); experiment: Test G Pre-Emergence Protocol; settings: Setaria faberi, pre-emergence, 312 h, evaluated after 13 days; for pest or weed control at 15.625 g/ha: 15.625 g ai/ha; for pest or weed control at 15.625 g/ha / pest or weed control at 250 g/ha: read-out: Foxtail, Giant damage rating (100=total damage to plant; 0=no damage to plant); for pest or weed control at 62.5 g/ha: 62.5 g ai/ha, 100=total damage to plant, 0=no damage to plant, read-out: plant damage rating, Foxtail, Giant; for pest or weed control at 250 g/ha: 250 g ai/ha
How it was run: as §1

[4] = system: ivy-leaved morning glory (Ipomoea hederacea); experiment: Test G Pre-Emergence Protocol; settings: Ipomoea, pre-emergence, 312 h, evaluated after 13 days; for pest or weed control at 15.625 g/ha: 15.625 g ai/ha, read-out: Morning-glory, Ivy-leaved damage rating (100=total damage to plant; 0=no damage to plant); for pest or weed control at 62.5 g/ha: 62.5 g ai/ha, 100=total damage to plant, 0=no damage to plant, read-out: plant damage rating, Morningglory, Ivy-leaved; for pest or weed control at 250 g/ha: 250 g ai/ha, read-out: Morningglory, Ivy-leaved damage rating (100=total damage to plant; 0=no damage to plant)
How it was run: as §1

[5] = system: redroot pigweed (Amaranthus retroflexus); experiment: Test G Pre-Emergence Protocol; settings: Amaranthus retroflexus, pre-emergence, 312 h, evaluated after 13 days; for pest or weed control at 15.625 g/ha: 15.625 g ai/ha; for pest or weed control at 15.625 g/ha / pest or weed control at 250 g/ha: read-out: Pigweed, Redroot damage rating (100=total damage to plant; 0=no damage to plant); for pest or weed control at 62.5 g/ha: 62.5 g ai/ha, 100=total damage to plant, 0=no damage to plant, read-out: plant damage rating, Pigweed, Redroot; for pest or weed control at 250 g/ha: 250 g ai/ha
How it was run: as §1

[6] = system: velvetleaf (Abutilon theophrasti); experiment: Test G Pre-Emergence Protocol; settings: Abutilon theophrasti, pre-emergence, 312 h, evaluated after 13 days; for pest or weed control at 15.625 g/ha: 15.625 g ai/ha; for pest or weed control at 15.625 g/ha / pest or weed control at 250 g/ha: read-out: Velvetleaf damage rating (100=total damage to plant; 0=no damage to plant); for pest or weed control at 62.5 g/ha: 62.5 g ai/ha, 100=total damage to plant, 0=no damage to plant, read-out: plant damage rating, Velvetleaf; for pest or weed control at 250 g/ha: 250 g ai/ha
How it was run: as §1

[7] = system: barnyardgrass (Echinochloa crus-galli); experiment: Test G Post-Emergence Protocol; settings: Echinochloa crus-galli, post-emergence, 312 h; for pest or weed control at 15.625 g/ha: 15.625 g ai/ha, evaluated after 13 days (100=total damage to plant; 0=no damage to plant), read-out: Barnyardgrass damage rating; for pest or weed control at 62.5 g/ha: 62.5 g ai/ha, read-out: Barnyardgrass damage rating (100=total damage to plant; 0=no damage to plant); for pest or weed control at 62.5 g/ha / pest or weed control at 250 g/ha: evaluated after 13 days; for pest or weed control at 250 g/ha: 250 g ai/ha, read-out: damage to plant, Barnyardgrass (100=total damage to plant; 0=no damage to plant)
How it was run: (§2)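 Scores run 0 (no damage) to 100 (total damage) and were taken 13 days after spraying. Plants had been raised in pots for 8 days under glasshouse control (24/16 °C, 14 h photoperiod, 65% humidity) and then treated at 15.625, 62.5 or 250 g/ha.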

corn (Zea mays) [8] = experiment: Test G Post-Emergence Protocol; settings: Zea mays, post-emergence, 312 h; for plant injury at 15.625 g/ha: 15.625 g ai/ha, evaluated after 13 days (100=total damage to plant; 0=no damage to plant), read-out: Corn damage rating; for plant injury at 62.5 g/ha: 62.5 g ai/ha, read-out: Corn damage rating (100=total damage to plant; 0=no damage to plant); for plant injury at 62.5 g/ha / plant injury at 250 g/ha: evaluated after 13 days; for plant injury at 250 g/ha: 250 g ai/ha, read-out: damage to plant, Corn (100=total damage to plant; 0=no damage to plant)
How it was run: as §2

[9] = system: giant foxtail (Setaria faberi); experiment: Test G Post-Emergence Protocol; settings: Setaria faberi, post-emergence, 312 h; for pest or weed control at 15.625 g/ha: 15.625 g ai/ha, evaluated after 13 days (100=total damage to plant; 0=no damage to plant), read-out: Foxtail, Giant damage rating; for pest or weed control at 62.5 g/ha: 62.5 g ai/ha, read-out: Foxtail, Giant damage rating (100=total damage to plant; 0=no damage to plant); for pest or weed control at 62.5 g/ha / pest or weed control at 250 g/ha: evaluated after 13 days; for pest or weed control at 250 g/ha: 250 g ai/ha, read-out: damage to plant, Foxtail, Giant (100=total damage to plant; 0=no damage to plant)
How it was run: as §2

[10] = system: ivy-leaved morning glory (Ipomoea hederacea); experiment: Test G Post-Emergence Protocol; settings: Ipomoea, post-emergence, 312 h; for pest or weed control at 15.625 g/ha: 15.625 g ai/ha, evaluated after 13 days (100=total damage to plant; 0=no damage to plant), read-out: Morningglory, Ivy-leaved damage rating; for pest or weed control at 62.5 g/ha: 62.5 g ai/ha, read-out: Morningglory, Ivy-leaved damage rating (100=total damage to plant; 0=no damage to plant); for pest or weed control at 62.5 g/ha / pest or weed control at 250 g/ha: evaluated after 13 days; for pest or weed control at 250 g/ha: 250 g ai/ha, read-out: damage to plant, Morningglory, Ivy-leaved (100=total damage to plant; 0=no damage to plant)
How it was run: as §2

[11] = system: redroot pigweed (Amaranthus retroflexus); experiment: Test G Post-Emergence Protocol; settings: Amaranthus retroflexus, post-emergence, 312 h; for pest or weed control at 15.625 g/ha: 15.625 g ai/ha, evaluated after 13 days (100=total damage to plant; 0=no damage to plant), read-out: Pigweed, Redroot damage rating; for pest or weed control at 62.5 g/ha: 62.5 g ai/ha, read-out: Pigweed, Redroot damage rating (100=total damage to plant; 0=no damage to plant); for pest or weed control at 62.5 g/ha / pest or weed control at 250 g/ha: evaluated after 13 days; for pest or weed control at 250 g/ha: 250 g ai/ha, read-out: damage to plant, Pigweed, Redroot (100=total damage to plant; 0=no damage to plant)
How it was run: as §2

[12] = system: velvetleaf (Abutilon theophrasti); experiment: Test G Post-Emergence Protocol; settings: Abutilon theophrasti, post-emergence, 312 h; for pest or weed control at 15.625 g/ha: 15.625 g ai/ha, evaluated after 13 days (100=total damage to plant; 0=no damage to plant), read-out: Velvetleaf damage rating; for pest or weed control at 62.5 g/ha: 62.5 g ai/ha, read-out: Velvetleaf damage rating (100=total damage to plant; 0=no damage to plant); for pest or weed control at 62.5 g/ha / pest or weed control at 250 g/ha: evaluated after 13 days; for pest or weed control at 250 g/ha: 250 g ai/ha, read-out: damage to plant, Velvetleaf (100=total damage to plant; 0=no damage to plant)
How it was run: as §2

Compound | pest or weed control at 15.625 g/ha [1] | pest or weed control at 62.5 g/ha [1] | pest or weed control at 250 g/ha [1] | plant injury at 15.625 g/ha (corn (Zea mays) [2]) | plant injury at 62.5 g/ha (corn (Zea mays) [2]) | plant injury at 250 g/ha (corn (Zea mays) [2]) | pest or weed control at 15.625 g/ha [3] | pest or weed control at 62.5 g/ha [3] | pest or weed control at 250 g/ha [3] | pest or weed control at 15.625 g/ha [4] | pest or weed control at 62.5 g/ha [4] | pest or weed control at 250 g/ha [4] | pest or weed control at 15.625 g/ha [5] | pest or weed control at 62.5 g/ha [5] | pest or weed control at 250 g/ha [5] | pest or weed control at 15.625 g/ha [6] | pest or weed control at 62.5 g/ha [6] | pest or weed control at 250 g/ha [6] | pest or weed control at 15.625 g/ha [7] | pest or weed control at 62.5 g/ha [7] | other results
CN1C[C@H](c2ccc(C(F)(F)F)cc2)[C@@H](C(=O)Nc2ccc(F)cc2S(C)(=O)=O)C1=O (racemic) [Compound 1483] | 40% | 40% | 70% | 30% | 20% | 40% | 30% | 60% | 80% | 0% | 0% | 0% | 20% | 40% | 80% | 0% | 0% | 0% | 30% | 40% | pest or weed control at 250 g/ha [7]: 70%; plant injury at 15.625 g/ha (corn (Zea mays) [8]): 20%; plant injury at 62.5 g/ha (corn (Zea mays) [8]): 30%; plant injury at 250 g/ha (corn (Zea mays) [8]): 50%; pest or weed control at 15.625 g/ha [9]: 30%; pest or weed control at 62.5 g/ha [9]: 60%; pest or weed control at 250 g/ha [9]: 70%; pest or weed control at 15.625 g/ha [10]: 0%; pest or weed control at 62.5 g/ha [10]: 0%; pest or weed control at 250 g/ha [10]: 0%; pest or weed control at 15.625 g/ha [11]: 40%; pest or weed control at 62.5 g/ha [11]: 30%; pest or weed control at 250 g/ha [11]: 60%; pest or weed control at 15.625 g/ha [12]: 10%; pest or weed control at 62.5 g/ha [12]: 10%; pest or weed control at 250 g/ha [12]: 30%
CN1C[C@@H](c2cnc(Cl)c(F)c2)[C@H](C(=O)Nc2cccc(F)c2F)C1=O (racemic) [Compound 1486] | 30% | 60% | 90% | 10% | 20% | 40% | 40% | 90% | 90% | 0% | 0% | 0% | 0% | 0% | 60% | 0% | 0% | 10% | 40% | 60% | pest or weed control at 250 g/ha [7]: 70%; plant injury at 15.625 g/ha (corn (Zea mays) [8]): 10%; plant injury at 62.5 g/ha (corn (Zea mays) [8]): 10%; plant injury at 250 g/ha (corn (Zea mays) [8]): 60%; pest or weed control at 15.625 g/ha [9]: 60%; pest or weed control at 62.5 g/ha [9]: 60%; pest or weed control at 250 g/ha [9]: 70%; pest or weed control at 15.625 g/ha [10]: 0%; pest or weed control at 62.5 g/ha [10]: 0%; pest or weed control at 250 g/ha [10]: 0%; pest or weed control at 15.625 g/ha [11]: 0%; pest or weed control at 62.5 g/ha [11]: 0%; pest or weed control at 250 g/ha [11]: 30%; pest or weed control at 15.625 g/ha [12]: 0%; pest or weed control at 62.5 g/ha [12]: 0%; pest or weed control at 250 g/ha [12]: 10%
CN1C[C@@H](c2ccc(C(F)(F)F)nc2)[C@H](C(=O)Nc2cccc(F)n2)C1=O (racemic) [Compound 1491] | 0% | 20% | 90% | 0% | 0% | 0% | 0% | 50% | 80% | 0% | 0% | 0% | 0% | 0% | 0% | 0% | 0% | 0% | 0% | 20% | pest or weed control at 250 g/ha [7]: 60%; plant injury at 15.625 g/ha (corn (Zea mays) [8]): 0%; plant injury at 62.5 g/ha (corn (Zea mays) [8]): 0%; plant injury at 250 g/ha (corn (Zea mays) [8]): 0%; pest or weed control at 15.625 g/ha [9]: 0%; pest or weed control at 62.5 g/ha [9]: 20%; pest or weed control at 250 g/ha [9]: 60%; pest or weed control at 15.625 g/ha [10]: 0%; pest or weed control at 62.5 g/ha [10]: 0%; pest or weed control at 250 g/ha [10]: 10%; pest or weed control at 15.625 g/ha [11]: 0%; pest or weed control at 62.5 g/ha [11]: 0%; pest or weed control at 250 g/ha [11]: 0%; pest or weed control at 15.625 g/ha [12]: 0%; pest or weed control at 62.5 g/ha [12]: 0%; pest or weed control at 250 g/ha [12]: 0%

— patent publication US12077503B2, “Substituted cyclic amides and their use as herbicides” (FMC CORPORATION, priority 2015, dated 2024)
